Results from ChEMBL document CHEMBL3414515, “Design of a potent antibiotic peptide based on the active region of human defensin 5” (J Med Chem, 2015).
≈ marks a conversion by molar mass, not a printed value. Calls of active or inactive are those of the source. The calls are words filed in the database; no cut-off is given here. Positions of bridges follow the written chain, without caps; N, C: chain ends. Residues, ends and D or L forms follow the SMILES beside them.

Legend:
[1] = tested on: Escherichia coli; experiment: Antibacterial activity against Escherichia coli ATCC 25922 assessed as reduction in bacterial survival rate; assay type: functional; conditions: for LC50: Escherichia coli, ATCC 25922, read-out: LD50 (the source's name)
[2] = tested on: Staphylococcus aureus; experiment: Antibacterial activity against Staphylococcus aureus ATCC 25923 assessed as reduction in bacterial survival rate; assay type: functional; conditions: for LC50: Staphylococcus aureus, ATCC 25923, read-out: LD50 (the source's name)
[3] = Induction of hemolysis in mouse erythrocytes at 12.5 and 25 ug/ml incubated at 37 degC for 15 mins; assay type: cell-based; conditions: erythrocyte, 0.25 h
[4] = tested on: Staphylococcus aureus; experiment: Antibacterial activity against Staphylococcus aureus ATCC 25923 assessed as reduction in bacterial survival rate at 25 ug/ml in presence of 10% mouse serum; assay type: functional, organism-based
[5] = Stability in presence of 400 U/L trypsin assessed as compound degradation at 100 ug/ml after 4 to 12 hrs by HPLC and LC-MS method; assay type: physicochemical; conditions: isolated protein
[6] = Binding affinity to Rd mutant containing Escherichia coli F583 lipid A assessed as equilibrium dissociation constant in presence of 75 mM NaCl by bilayer interferometry
[7] = tested on: Escherichia coli; experiment: Antibacterial activity against Escherichia coli ATCC 25922 assessed as reduction in bacterial survival rate at 25 ug/ml in presence of 10% mouse serum; assay type: functional, organism-based
[8] = tested on: Escherichia coli; experiment: Antibacterial activity against Escherichia coli ATCC 25922 assessed as reduction in bacterial survival rate 12.5 ug/ml in presence of 150 mM NaCl; assay type: functional, organism-based
[9] = Induction of hemolysis in mouse erythrocytes up to 100 ug/ml incubated at 37 degC for 15 mins; assay type: cell-based, Erythrocyte; conditions: read-out: Activity
[10] = tested on: Escherichia coli; experiment: Antibacterial activity against Escherichia coli ATCC 25922 assessed as reduction in bacterial survival rate at 12.5 ug/ml in presence of >75 mM NaCl; assay type: functional, organism-based
[11] = Binding affinity to Rd mutant containing Escherichia coli F583 lipid A assessed as equilibrium dissociation constant by bilayer interferometry
[12] = tested on: Escherichia coli; experiment: Induction of outer membrane disintegration in Escherichia coli ATCC 25922 at 6.25 ug/ml by NPN uptake assay; assay type: functional, organism-based
[13] = tested on: Escherichia coli; experiment: Induction of inner membrane disintegration in Escherichia coli ML35 ATCC 43827 at 1.6 to 6.3 ug/ml by ONPG hydrolysis assay; assay type: functional, organism-based
[14] = Binding affinity to Staphylococcus aureus lipoteichoic acid assessed as equilibrium dissociation constant by bilayer interferometry
[15] = tested on: Escherichia coli; experiment: Induction of inner membrane disintegration in Escherichia coli ML35 ATCC 43827 at 0.78 to 1.6 ug/ml by ONPG hydrolysis assay; assay type: functional, organism-based

CC[C@H](C)[C@@H]1NC(=O)[C@H](CCC(=O)O)NC(=O)[C@@H]2CSSC[C@@H]3NC(=O)[C@H](Cc4ccc(O)cc4)NC(=O)[C@@H](NC(=O)[C@@H](NC(=O)[C@H](C)N)[C@@H](C)O)CSSC[C@@H](C(=O)N[C@@H](CCCNC(=N)N)C(=O)O)NC(=O)[C@H](CSSC[C@H](NC(=O)[C@H](CCCNC(=N)N)NC(=O)CNC(=O)[C@H]([C@@H](C)O)NC(=O)[C@H](CCCNC(=N)N)NC3=O)C(=O)N[C@@H](C)C(=O)N[C@@H]([C@@H](C)O)C(=O)N[C@@H](CCCNC(=N)N)C(=O)N[C@@H](CCC(=O)O)C(=O)N[C@@H](CO)C(=O)N[C@@H](CC(C)C)C(=O)N[C@@H](CO)C(=O)NCC(=O)N[C@@H](C(C)C)C(=O)N2)NC(=O)[C@H](CC(C)C)NC(=O)[C@H](CCCNC(=N)N)NC(=O)[C@H](Cc2ccc(O)cc2)NC(=O)[C@H](CC(C)C)NC(=O)[C@H](CCCNC(=N)N)NC(=O)[C@H](CCCNC(=N)N)NC(=O)[C@H](CO)NC1=O (H-ATCYCRTGRCATRESLSGVCEISRRLYRLCCR-OH; disulfide 3-31, 5-20, 10-30)
LD90 [1]: 5.8 µg/mL
LC50 [1]: 1.6 µg/mL (≈ 0.435 µM)
LD90 [2]: 3.1 µg/mL
LC50 [2]: 1.5 µg/mL (≈ 0.407 µM)

CC[C@H](C)[C@@H]1NC(=O)[C@H](CCC(=O)O)NC(=O)[C@@H]2CSSC[C@@H]3NC(=O)[C@H](Cc4ccc(O)cc4)NC(=O)[C@@H](NC(=O)[C@@H](NC(=O)[C@H](C)N)[C@@H](C)O)CSSC[C@@H](C(=O)N[C@@H](CCCNC(=N)N)C(=O)O)NC(=O)[C@H](CSSC[C@H](NC(=O)[C@H](CCCNC(=N)N)NC(=O)CNC(=O)[C@H]([C@@H](C)O)NC(=O)[C@H](CCCNC(=N)N)NC3=O)C(=O)N[C@@H](C)C(=O)N[C@@H]([C@@H](C)O)C(=O)N[C@@H](CCCNC(=N)N)C(=O)N[C@@H](CCC(=O)O)C(=O)N[C@@H](CO)C(=O)N[C@@H](CC(C)C)C(=O)N[C@@H](CO)C(=O)NCC(=O)N[C@@H](C(C)C)C(=O)N2)NC(=O)[C@H](CC(C)C)NC(=O)[C@H](CCCNC(=N)N)NC(=O)[C@H](Cc2ccc(O)cc2)NC(=O)[C@H](CC(C)C)NC(=O)[C@H](CCCNC(=N)N)NC(=O)CNC(=O)[C@H](CCCNC(=N)N)NC1=O (H-ATCYCRTGRCATRESLSGVCEIRGRLYRLCCR-OH; disulfide 3-31, 5-20, 10-30)
LD90 [1]: 6 µg/mL
LC50 [1]: 1.7 µg/mL (≈ 0.466 µM)
LD90 [2]: 3 µg/mL
LC50 [2]: 1.5 µg/mL (≈ 0.411 µM)

CC[C@H](C)[C@H](NC(=O)CN)C(=O)NCC(=O)N[C@@H](C)C(=O)N[C@H](C(=O)N[C@@H](CC(C)C)C(=O)N[C@@H](CCCCN)C(=O)N[C@H](C(=O)N[C@@H](CC(C)C)C(=O)N[C@H](C(=O)N[C@H](C(=O)NCC(=O)N[C@@H](CC(C)C)C(=O)N1CCC[C@H]1C(=O)N[C@@H](C)C(=O)N[C@@H](CC(C)C)C(=O)N[C@H](C(=O)N[C@@H](CO)C(=O)N[C@@H](Cc1c[nH]c2ccccc12)C(=O)N[C@H](C(=O)N[C@@H](CCCCN)C(=O)N[C@@H](CCCNC(=N)N)C(=O)N[C@@H](CCCCN)C(=O)N[C@@H](CCCNC(=N)N)C(=O)N[C@@H](CCC(N)=O)C(=O)N[C@@H](CCC(N)=O)C(N)=O)[C@@H](C)CC)[C@@H](C)CC)[C@@H](C)O)[C@@H](C)O)C(C)C)C(C)C [MELITTIN]
Activity [3]: Toxic

CC[C@H](C)[C@@H]1NC(=O)[C@H](CCCNC(=N)N)NC(=O)[C@@H]2CSSC[C@@H]3NC(=O)[C@H](Cc4ccc(O)cc4)NC(=O)[C@@H](NC(=O)[C@@H](NC(=O)[C@H](C)N)[C@@H](C)O)CSSC[C@@H](C(=O)N[C@@H](CCCNC(=N)N)C(=O)O)NC(=O)[C@H](CSSC[C@H](NC(=O)[C@H](CCCNC(=N)N)NC(=O)CNC(=O)[C@H](CCCNC(=N)N)NC(=O)[C@H](CCCNC(=N)N)NC3=O)C(=O)N[C@@H](C)C(=O)N[C@@H]([C@@H](C)O)C(=O)N[C@@H](CCCNC(=N)N)C(=O)N[C@@H](CCC(=O)O)C(=O)N[C@@H](CO)C(=O)N[C@@H](CC(C)C)C(=O)N[C@@H](CO)C(=O)NCC(=O)N[C@@H](C(C)C)C(=O)N2)NC(=O)[C@H](CC(C)C)NC(=O)[C@H](CCCNC(=N)N)NC(=O)[C@H](Cc2ccc(O)cc2)NC(=O)[C@H](CC(C)C)NC(=O)[C@H](CCCNC(=N)N)NC(=O)CNC(=O)[C@H](CO)NC1=O (H-ATCYCRRGRCATRESLSGVCRISGRLYRLCCR-OH; disulfide 3-31, 5-20, 10-30)
LD90 [1]: 1.8 µg/mL
LC50 [1]: 0.8 µg/mL (≈ 0.218 µM)
Activity [4]: Active
Stability [5]: Stable
LD90 [2]: 1.4 µg/mL
LC50 [2]: < 0.39 µg/mL
Kd [6]: 0.048 µM
Activity [7]: Active
Activity [8]: Active
hemolysis at 0.25 h [9]: ≤ 1%

CC[C@H](C)[C@@H]1NC(=O)[C@H](CCC(=O)O)NC(=O)[C@@H]2CSSC[C@@H]3NC(=O)[C@H](Cc4ccc(O)cc4)NC(=O)[C@@H](NC(=O)[C@@H](NC(=O)[C@H](C)N)[C@@H](C)O)CSSC[C@@H](C(=O)N[C@@H](CCCNC(=N)N)C(=O)O)NC(=O)[C@H](CSSC[C@H](NC(=O)[C@H](CCCNC(=N)N)NC(=O)CNC(=O)[C@H]([C@@H](C)O)NC(=O)[C@H](CCCNC(=N)N)NC3=O)C(=O)N[C@@H](C)C(=O)N[C@@H]([C@@H](C)O)C(=O)N[C@@H](CCCNC(=N)N)C(=O)N[C@@H](CCC(=O)O)C(=O)N[C@@H](CO)C(=O)N[C@@H](CC(C)C)C(=O)N[C@@H](CO)C(=O)NCC(=O)N[C@@H](C(C)C)C(=O)N2)NC(=O)[C@H](CC(C)C)NC(=O)[C@H](CCCNC(=N)N)NC(=O)[C@H](Cc2ccc(O)cc2)NC(=O)[C@H](CC(C)C)NC(=O)[C@H](CCCNC(=N)N)NC(=O)CNC(=O)[C@H](CO)NC1=O (H-ATCYCRTGRCATRESLSGVCEISGRLYRLCCR-OH; disulfide 3-31, 5-20, 10-30)
LD90 [1]: 6.6 µg/mL
LC50 [1]: 3.3 µg/mL (≈ 0.921 µM)
Activity [4]: inactive
Activity [10]: inactive
Kd [11]: 0.12 µM
LD90 [2]: 3.4 µg/mL
LC50 [2]: 1.9 µg/mL (≈ 0.53 µM)
Activity [12]: Active
Activity [13]: Active
Kd [6]: 0.21 µM
Activity [7]: inactive
Kd [14]: 0.22 µM

CC[C@H](C)[C@@H]1NC(=O)[C@H](CCCNC(=N)N)NC(=O)[C@@H]2CSSC[C@@H]3NC(=O)[C@H](Cc4ccc(O)cc4)NC(=O)[C@@H](NC(=O)[C@@H](NC(=O)[C@H](C)N)[C@@H](C)O)CSSC[C@@H](C(=O)N[C@@H](CCCNC(=N)N)C(=O)O)NC(=O)[C@H](CSSC[C@H](NC(=O)[C@H](CCCNC(=N)N)NC(=O)CNC(=O)[C@H]([C@@H](C)O)NC(=O)[C@H](CCCNC(=N)N)NC3=O)C(=O)N[C@@H](C)C(=O)N[C@@H]([C@@H](C)O)C(=O)N[C@@H](CCCNC(=N)N)C(=O)N[C@@H](CCC(=O)O)C(=O)N[C@@H](CO)C(=O)N[C@@H](CC(C)C)C(=O)N[C@@H](CO)C(=O)NCC(=O)N[C@@H](C(C)C)C(=O)N2)NC(=O)[C@H](CC(C)C)NC(=O)[C@H](CCCNC(=N)N)NC(=O)[C@H](Cc2ccc(O)cc2)NC(=O)[C@H](CC(C)C)NC(=O)[C@H](CCCNC(=N)N)NC(=O)CNC(=O)[C@H](CO)NC1=O (H-ATCYCRTGRCATRESLSGVCRISGRLYRLCCR-OH; disulfide 3-31, 5-20, 10-30)
LD90 [1]: 3.1 µg/mL
LC50 [1]: 1.3 µg/mL (≈ 0.36 µM)
Activity [15]: Active
Kd [11]: 0.033 µM
LD90 [2]: 2.2 µg/mL
LC50 [2]: 0.6 µg/mL (≈ 0.166 µM)
Activity [12]: Active
Kd [14]: 0.085 µM

CC[C@H](C)[C@@H]1NC(=O)[C@H](CCC(=O)O)NC(=O)[C@@H]2CSSC[C@@H]3NC(=O)[C@H](Cc4ccc(O)cc4)NC(=O)[C@@H](NC(=O)[C@@H](NC(=O)[C@H](C)N)[C@@H](C)O)CSSC[C@@H](C(=O)N[C@@H](CCCNC(=N)N)C(=O)O)NC(=O)[C@H](CSSC[C@H](NC(=O)[C@H](CCCNC(=N)N)NC(=O)CNC(=O)[C@H](CCCNC(=N)N)NC(=O)[C@H](CCCNC(=N)N)NC3=O)C(=O)N[C@@H](C)C(=O)N[C@@H]([C@@H](C)O)C(=O)N[C@@H](CCCNC(=N)N)C(=O)N[C@@H](CCC(=O)O)C(=O)N[C@@H](CO)C(=O)N[C@@H](CC(C)C)C(=O)N[C@@H](CO)C(=O)NCC(=O)N[C@@H](C(C)C)C(=O)N2)NC(=O)[C@H](CC(C)C)NC(=O)[C@H](CCCNC(=N)N)NC(=O)[C@H](Cc2ccc(O)cc2)NC(=O)[C@H](CC(C)C)NC(=O)[C@H](CCCNC(=N)N)NC(=O)CNC(=O)[C@H](CO)NC1=O (H-ATCYCRRGRCATRESLSGVCEISGRLYRLCCR-OH; disulfide 3-31, 5-20, 10-30)
LD90 [1]: 5 µg/mL
LC50 [1]: 1.4 µg/mL (≈ 0.385 µM)
LD90 [2]: 2.8 µg/mL
LC50 [2]: 1.3 µg/mL (≈ 0.357 µM)
